Laboratory results: patent US12502384B2, “Pharmaceutical composition containing nitroxoline prodrug, and preparation method and application therefor” (Jiangsu Yahong Meditech Co., Ltd., priority 2020, dated 2025)

Assay: Stability test: impurity content by HPLC (self-control)
Format: physicochemical
Settings: for Impurity (%)/RRT relative retention time 0.71 / Impurity (%)/RRT relative retention time 0.78 / Impurity (%)/RRT relative retention time 0.83 / Impurity (%)/RRT relative retention time 0.89 / Impurity (%)/RRT relative retention time 0.9 / Impurity (%)/RRT relative retention time 1.06 / Impurity (%)/RRT relative retention time 1.95 / Impurity (%)/RRT relative retention time 0.93 / Impurity (%)/RRT relative retention time 1.97: — = not detected
Procedure: The impurity content of the immediate-release tablets obtained in Examples 1, 3, and 8 was determined respectively to evaluate the stability, and the steps were as follows:
1. Preparation Method for Test Solution I and Test Solution II
About 25 mg of a batch of nitroxoline prodrug was added to a 50 mL volumetric flask, followed by the addition of about 30 mL of acetonitrile. The resulting solution was ultrasonicated for 10 minutes, cooled to room temperature, diluted with acetonitrile to the constant volume, and mixed well. An appropriate amount of the above solution was filtered to obtain test solution I.
According to the above method, another batch of nitroxoline prodrug was used to obtain test solution II.
Test solution I was used to study the impurity content under normal temperature and different storage times (0 h, 6 h, 12 h, 18 h, 24 h), and the impurity content under 2 to 8° C. and a storage time of 24 hours.
Test solution II was used to study the impurity content under two different stability conditions (intermediate condition of 30° C./65% RH and accelerated condition of 40° C./75% RH, as shown in Table 2).
2. […]
3. Preparation Method for 0.2% Self-Control Solution
2 mL of test solution I, test solution II or test solution III was added to a 100 mL volumetric flask, and diluted with acetonitrile to the constant volume. 1 mL of the resulting solution was added to a 10 mL volumetric flask, diluted with acetonitrile to the constant volume, and mixed well to obtain the desired solution.
4. Determination of Impurity Content
(§1) Test solution I was placed at room temperature, and samples were collected respectively at 0 h, 6 h, 12 h, 18 h, 24 h. 0.2% self-control solution was formulated. Samples were injected respectively, and the single impurity content and total impurity content in test solution I at each time point were calculated according to the self-control.
as §1, with “in a refrigerator (2 to 8° C.),” for “at room temperature,”, “collected” for “collected respectively”, “at” for “at 0 h, 6 h, 12 h, 18 h,”, “this” for “each”
Samples were collected from Test solution II at 0 day, at one month under the intermediate condition (30° C./65% RH) and at one month under the accelerated condition (40° C./75% RH). 0.2% self-control solution was formulated. Samples were injected respectively, and the single impurity content and total impurity content in test solution II at this time point were calculated according to the self-control. […]

[1] = Accelerated condition (40° C./75% RH) one month
[2] = Intermediate condition (30° C./65% RH) one month

Compound: CC(C)C(=O)N1CCC[C@H]1C(=O)OCOc1ccc([N+](=O)[O-])c2cccnc12 [nitroxoline prodrug, (S)-(5-nitroquinolin-8-yloxy)methyl 1-isopropionylpyrrolidine-2-carboxylate]
- Total impurity (%) [1]: 1.038%
- Impurity (%)/RRT relative retention time 0.71 [1]: 0.005%
- Impurity (%)/RRT relative retention time 0.78 [1]: 0.792%
- Impurity (%)/RRT relative retention time 0.83 [1]: 0.02%
- Impurity (%)/RRT relative retention time 0.89 [1]: 0.018%
- Impurity (%)/RRT relative retention time 0.9 [1]: 0.012%
- Impurity (%)/RRT relative retention time 1.06 [1]: 0.173%
- Impurity (%)/RRT relative retention time 1.95 [1]: 0.018%
- Total impurity (%) [2]: 0.333%
- Impurity (%)/RRT relative retention time 0.78 [2]: 0.117%
- Impurity (%)/RRT relative retention time 0.89 [2]: 0.018%
- Impurity (%)/RRT relative retention time 0.9 [2]: 0.011%
- Impurity (%)/RRT relative retention time 1.06 [2]: 0.169%
- Impurity (%)/RRT relative retention time 1.95 [2]: 0.018%
- Total impurity (%) (Storage time 0 h(RT)): 0.192%
- Impurity (%)/RRT relative retention time 0.89 (Storage time 0 h(RT)): 0.055%
- Impurity (%)/RRT relative retention time 0.9 (Storage time 0 h(RT)): 0.055%
- Impurity (%)/RRT relative retention time 0.93 (Storage time 0 h(RT)): 0.082%
- Total impurity (%) (Storage time 0 day): 0.261%
- Impurity (%)/RRT relative retention time 0.78 (Storage time 0 day): 0.042%
- Impurity (%)/RRT relative retention time 0.89 (Storage time 0 day): 0.019%
- Impurity (%)/RRT relative retention time 0.9 (Storage time 0 day): 0.011%
- Impurity (%)/RRT relative retention time 1.06 (Storage time 0 day): 0.17%
- Impurity (%)/RRT relative retention time 1.95 (Storage time 0 day): 0.019%
- Total impurity (%) (Storage time 6 h(RT)): 0.739%
- Impurity (%)/RRT relative retention time 0.71 (Storage time 6 h(RT)): 0.18%
- Impurity (%)/RRT relative retention time 0.89 (Storage time 6 h(RT)): 0.059%
- Impurity (%)/RRT relative retention time 0.9 (Storage time 6 h(RT)): 0.069%
- Impurity (%)/RRT relative retention time 0.93 (Storage time 6 h(RT)): 0.091%
- Impurity (%)/RRT relative retention time 1.95 (Storage time 6 h(RT)): 0.089%
- Impurity (%)/RRT relative retention time 1.97 (Storage time 6 h(RT)): 0.251%
- Total impurity (%) (Storage time 12 h(RT)): 0.733%
- Impurity (%)/RRT relative retention time 0.71 (Storage time 12 h(RT)): 0.176%
- Impurity (%)/RRT relative retention time 0.89 (Storage time 12 h(RT)): 0.053%
- Impurity (%)/RRT relative retention time 0.9 (Storage time 12 h(RT)): 0.063%
- Impurity (%)/RRT relative retention time 0.93 (Storage time 12 h(RT)): 0.092%
- Impurity (%)/RRT relative retention time 1.95 (Storage time 12 h(RT)): 0.093%
- Impurity (%)/RRT relative retention time 1.97 (Storage time 12 h(RT)): 0.256%
- Total impurity (%) (Storage time 18 h(RT)): 1.035%
- Impurity (%)/RRT relative retention time 0.71 (Storage time 18 h(RT)): 0.174%
- Impurity (%)/RRT relative retention time 0.83 (Storage time 18 h(RT)): 0.377%
- Impurity (%)/RRT relative retention time 0.89 (Storage time 18 h(RT)): 0.054%
- Impurity (%)/RRT relative retention time 0.9 (Storage time 18 h(RT)): 0.057%
- Impurity (%)/RRT relative retention time 0.93 (Storage time 18 h(RT)): 0.092%
- Impurity (%)/RRT relative retention time 1.95 (Storage time 18 h(RT)): 0.065%
- Impurity (%)/RRT relative retention time 1.97 (Storage time 18 h(RT)): 0.216%
- Total impurity (%) (Storage time 24 h(2-8° C.)): 0.608%
- Impurity (%)/RRT relative retention time 0.71 (Storage time 24 h(2-8° C.)): 0.175%
- Impurity (%)/RRT relative retention time 0.83 (Storage time 24 h(2-8° C.)): 0.189%
- Impurity (%)/RRT relative retention time 0.89 (Storage time 24 h(2-8° C.)): 0.053%
- Impurity (%)/RRT relative retention time 0.9 (Storage time 24 h(2-8° C.)): 0.064%
- Impurity (%)/RRT relative retention time 0.93 (Storage time 24 h(2-8° C.)): 0.088%
- Impurity (%)/RRT relative retention time 1.06 (Storage time 24 h(2-8° C.)): 0.039%
- Total impurity (%) (Storage time 24 h(RT)): 1.254%
- Impurity (%)/RRT relative retention time 0.71 (Storage time 24 h(RT)): 0.177%
- Impurity (%)/RRT relative retention time 0.83 (Storage time 24 h(RT)): 0.524%
- Impurity (%)/RRT relative retention time 0.89 (Storage time 24 h(RT)): 0.054%
- Impurity (%)/RRT relative retention time 0.9 (Storage time 24 h(RT)): 0.053%
- Impurity (%)/RRT relative retention time 0.93 (Storage time 24 h(RT)): 0.09%
- Impurity (%)/RRT relative retention time 1.95 (Storage time 24 h(RT)): 0.097%
- Impurity (%)/RRT relative retention time 1.97 (Storage time 24 h(RT)): 0.259%
